Patent US11648289B2, “Antibacterial method” (priority 2016, dated 2023)
Like-named read-outs stand apart in the source and are kept apart here. No end group written: not given here.

Experiments:
L. lactis LMGT 2233 = tested on: L. lactis LMGT 2233
Protocol: (§1) Bacterial strains, growth conditions, bacteriocins and antimicrobial assays. All the strains (see below) used in minimal inhibitory concentration (MIC) assays (Varahan et al., 2014, M. Bio. 5:e01726-01714) were grown in BHI medium (Oxoid) at 30° C. without shaking. A collection of E. faecium strains isolated from blood in patients from different European hospitals was received from Department of Medical Microbiology, University Medical Center Utrecht, the Netherlands. […] Synthesized peptides were solubilized to concentrations of 10.0-0.1 mg/ml in 0.1% (vol/vol) trifluoroacetic acid and stored at −20° C. until use. […] Bacteriocin activity was determined by microtiter plate assay as previously described (Holo et al., 1991, J. Bacteriol., 173:3879-3887). The MIC was defined as the minimal bacteriocin concentration that inhibited the growth of the indicator strain by at least 50% (50% of the turbidity of the control culture without bacteriocin) in 200 μl culture. CD Spectroscopy Circular dichroism (CD) spectra were recorded using a Jasco J-810 spectropolarimeter (Jasco International Co) calibrated with D-camphor-10-sulfonate (Icatayama Chemical). All measurements were made using a quartz cuvette (Sterna) with 0.1 cm path length. Samples were scanned five times with a scanning rate of 50 nm/min with a bandwidth of 0.5 nm and response time of 1 s over the wavelength range 190-250 nm. Spectra were recorded at different (30 and 50%) trifluoroethanol (TFE) (Aldridge) concentrations at 25° C. The approximate α-helical content of the protein was estimated from its molar ellipticity at 222 nm (Scholtz et al., 1991, Biopolymers 31:1463-1470). NMR Spectroscopy The experiments were run on a sample containing 1.0 mM EntK1, 50% D3-TFE (99.5% D) (Aldrich), Milli-Q water and 0.2 mM of 4,4-dimethyl-4-silapentane-1-sulfonic acid (DSS) (Larodan). 2D NOESY (Jeener et al., 1979, J. Magn. Reson., 71:4546-4553), 2D TOCSY (Braunschweiler and Ernst, 1983, J. Magn. Reson., 53:521-528), 2D DQCOSY, ^15N-HSQC (Davis et al., 1992, J. Magn. Reson., 98:207-216) and ^13C-HSQC (Hurd, 1991, J. Magn. Reson., 91:648-653) were recorded. The data was acquired on a 600 MHz Bruker Avance II spectrometer with four channels and a 5 mm TCI cryoprobe (Bruker Biospin). NOESY spectra with mixing times between 120 ms and 300 ms were obtained for both samples. TOCSY mixing times of 15-80 ms were used. The experiments were run at 298.15 K. Spectra were processed using the Topspin program (Bruker Biospin). 4,4-dimethyl-4-silapentane-1-sulfonic acid (DSS) was used as a chemical shift standard, and ^15N and ^13C data were referenced using frequency ratios as described in (Wishart et al., 1995, J. Biomol. NMR., 6:135-140). For visualization, assignment and integration of the spectra the computer program CARA was used (Keller, 2004, The Computer Aided Resonance Assignment Tutorial. CANTINA Verlag, Goldau, Switzerland). The spectra were assigned using standard methods. Dihedral angle restraints were obtained from the chemical shift values using the program TALOS-N(Shen and Bax, 2013, J. Biomol. NMR, 56:227-241). Nuclear Overhauser effect (NOE) distance restraints were calculated from the peak volumes in the NOESY spectra with NOESY mixing time of 200 ms. All structure calculations were made using the structure calculation program CYANA 2.1 (Guntert et al., 1997, J. Mol. Biol., 273:283-298; Herrmann et al., 2002, J. Mol. Biol., 319:209-227). The annealing macro in CYANA calculated 100 structures. The 20 structures with the lowest energy were kept and analyzed further. The root-mean-square deviation (RMSD) was calculated and the structures were visualized using MolMol (Koradi et al., 1996, J. Mol. Graph., 14:51-55, 29-32). Generation of bacteriocin resistant mutants of E. faecalis and E. faecium.

[1] = tested on: Lactobacillus sakei LMGT 2334
Protocol: as §1

E. faecalis LMGT 3386 = tested on: E. faecalis LMGT 3386
Protocol: as §1

[2] = tested on: Lactococcus garvieae LMGT 1546
Protocol: as §1

L. lactis LMGT 2095 = tested on: L. lactis LMGT 2095
Protocol: as §1

L. cremoris LMGT 2057 = tested on: L. cremoris LMGT 2057
Protocol: as §1

S. pneumoniae ms3 = details: ms3, rseP H22>A, induced with ComS (2 μM)
Protocol: as §1

S. pneumoniae ms2 = details: ms2, rseP E19>A, induced with ComS (2 μM)
Protocol: as §1

E. hirae LMGT 3236 = tested on: E. hirae LMGT 3236
Protocol: as §1

E. faecalis LMGT 3567 = tested on: E. faecalis LMGT 3567
Protocol: as §1

E. faecalis LMGT 3370 = tested on: E. faecalis LMGT 3370
Protocol: as §1

B. cereus LMGT 2731 = tested on: B. cereus LMGT 2731
Protocol: as §1

S. aureus LMGT 3272 = tested on: S. aureus LMGT 3272
Protocol: as §1

B. cercus LMGT 2711 = tested on: B. cercus LMGT 2711
Protocol: as §1

E. faecalis LMGT 3330 = tested on: E. faecalis LMGT 3330
Protocol: as §1

E. faecium LMGT 3192 = tested on: E. faecium LMGT 3192
Protocol: as §1

S. pneumoniae ds 221 = details: ds 221, no rseP
Protocol: as §1

E. faecium LMGT 3104 = tested on: E. faecium LMGT 3104
Protocol: as §1

E. faecium LMGT 3110 = tested on: E. faecium LMGT 3110
Protocol: as §1

L. garvieae LMGT 2217 = tested on: L. garvieae LMGT 2217
Protocol: as §1

S. pneumoniae ms4 = details: ms4, rseP Y24>A, induced with ComS (2 μM)
Protocol: as §1

| Sequence | MIC 50 (L. lactis LMGT 2233) [µM] | MIC 50 (E. faecalis LMGT 3386) [µM] | MIC 50 [2] [µM] | MIC 50 (L. lactis LMGT 2095) [µM] | MIC 50 (L. cremoris LMGT 2057) [µM] | MIC (S. pneumoniae ms3) [µM] | MIC (S. pneumoniae ms2) [µM] | MIC 50 (E. hirae LMGT 3236) [µM] | MIC 50 (E. faecalis LMGT 3567) [µM] | MIC 50 (E. faecalis LMGT 3370) [µM] | MIC 50 (B. cereus LMGT 2731) [µM] | MIC 50 (S. aureus LMGT 3272) [µM] | MIC 50 (B. cercus LMGT 2711) [µM] | MIC 50 (E. faecalis LMGT 3330) [µM] | MIC 50 (E. faecium LMGT 3192) [µM] | MIC (S. pneumoniae ds 221) [µM] | MIC 50 (E. faecium LMGT 3104) [µM] | MIC 50 (E. faecium LMGT 3110) [µM] | MIC 50 (L. garvieae LMGT 2217) [µM] | MIC (S. pneumoniae ms4) [µM] | also measured |
| --- | --- | --- | --- | --- | --- | --- | --- | --- | --- | --- | --- | --- | --- | --- | --- | --- | --- | --- | --- | --- | --- |
| MKFKFNPTGTIVKKLTQYEIAWFKNKHGYYPWEIPRC [EntK1] | >5.5 | >5.5 | 1.37 | >5.5 | >5.5 | >5.5 | >5.5 | 0.045 | >5.5 | 5.5 | >5.5 | >5.5 | 2.75 | >5.5 | 0.02 | >5.5 | 0.01 | 0.045 | 0.34 | 0.7 | MIC 50 ([1]; Lactobacillus sakei LMGT 2334): >5.5 µM |
| MKTILRFVAGYDIASHKKKTGGYPWERGKA [LsbB, reference compound] | >7 | >7 | >7 | >7 | >7 | >7 | >7 | >7 | >7 | >7 | >7 | >7 | >7 | >7 | >7 | >7 | >7 | >7 | >7 | >7 | MIC 50 ([1]; LMGT 2334): >7 µM |
| MLAKIKAMIKKFPNPYTLAAKLTTYEINWYKQQYGRYPWERPVA [EntEJ97] | 0.145 | 0.295 | 0.295 | 0.145 | 0.145 | 0.3 | 0.3 | 0.075 | 0.295 | 0.145 | >4.7 | 1.175 | >4.7 | 0.145 | 0.295 | >4.5 | 0.145 | 0.295 | 0.295 | 0.018 | MIC 50 ([1]; Lactobacillus sakei LMGT 2334): >4.7 µM |
